# Tests used:
# [1] = tested on: Streptococcus pyogenes; assay: Antimicrobial activity against Streptococcus pyogenes 308A; assay type: functional
# [2] = tested on: Streptococcus pyogenes; assay: Antimicrobial activity against Streptococcus pyogenes 77A; assay type: functional
# [3] = tested on: Staphylococcus aureus; assay: Antimicrobial activity against Staphylococcus aureus 503; assay type: functional
# [4] = tested on: Escherichia coli; assay: Antimicrobial activity against Escherichia coli DC2; assay type: functional
# [5] = tested on: Pseudomonas aeruginosa; assay: Antimicrobial activity against Pseudomonas aeruginosa 9027; assay type: functional
# [6] = tested on: Pseudomonas aeruginosa; assay: Antimicrobial activity against Pseudomonas aeruginosa 1771M; assay type: functional
# [7] = tested on: Salmonella typhimurium; assay: Antimicrobial activity against Salmonella Typhimurium; assay type: functional, Salmonella enterica subsp. enterica serovar Typhimurium; conditions: Salmonella enterica
# [8] = tested on: Enterobacter cloacae; assay: Antimicrobial activity against Enterobacter cloacae 1321E; assay type: functional
# [9] = Hemolytic activity against RBC at 100 ug/ml; assay type: ADME, cell-based; conditions: erythrocyte
Structure (SMILES),MIC [1] [µg/mL],MIC [2] [µg/mL],MIC [3] [µg/mL],MIC [4] [µg/mL],MIC [5] [µg/mL],MIC [6] [µg/mL],MIC [7] [µg/mL],MIC [8] [µg/mL],Activity [9]
C[C@H](CO)[C@H]1CC[C@H]2[C@@H]3[C@H](N)C[C@H]4C[C@H](N)CC[C@]4(C)[C@H]3CC[C@]12C.Cl.Cl,1.6,3.1,3.1,12.5,50,25,25,50,
C[C@H](CO)[C@H]1CC[C@H]2[C@@H]3[C@H](N)C[C@H]4C[C@H](NCCCNCCCCN)CC[C@]4(C)[C@H]3CC[C@]12C.Cl.Cl.Cl.Cl,12.5,25,12.5,> 100,25,> 100,> 100,> 100,
C[C@H](CO)[C@H]1CC[C@H]2[C@@H]3[C@H](N)C[C@H]4C[C@@H](O)CC[C@]4(C)[C@H]3CC[C@]12C.Cl,6.3,12.5,12.5,25,> 100,> 100,> 100,> 100,
C[C@H](CO)[C@H]1CC[C@H]2[C@@H]3[C@H](N)C[C@H]4C[C@H](NCCCNCCCCNCCCN)CC[C@]4(C)[C@H]3CC[C@]12C.Cl.Cl.Cl.Cl.Cl,6.3,25,12.5,50,12.5,25,> 100,> 100,
C[C@H](COS(=O)(=O)O)[C@H]1CC[C@H]2[C@@H]3[C@H](N)C[C@H]4C[C@@H](NCCCNCCCCN)CC[C@]4(C)[C@H]3CC[C@]12C.Cl.Cl.Cl.Cl,25,50,25,> 100,> 100,> 100,> 100,> 100,
C[C@H](CO)[C@H]1CC[C@H]2[C@@H]3[C@H](F)C[C@H]4C[C@@H](NCCCNCCCCN)CC[C@]4(C)[C@H]3CC[C@]12C.Cl.Cl.Cl,6.3,6.3,6.3,6.3,6.3,3.1,> 100,> 100,
C[C@H](CO)[C@H]1CC[C@H]2[C@@H]3[C@H](O)C[C@H]4C[C@@H](NCCCNCCCCN)CC[C@]4(C)[C@H]3CC[C@]12C.Cl.Cl.Cl,25,25,12.5,25,12.5,25,50,50,
C[C@H](CO)[C@H]1CC[C@H]2[C@@H]3[C@H](N)C[C@H]4C[C@H](O)CC[C@]4(C)[C@H]3CC[C@]12C.Cl,3.1,6.3,3.1,12.5,> 100,> 100,> 100,> 100,Active
C[C@H](COS(=O)(=O)O)[C@H]1CC[C@H]2[C@@H]3[C@H](N)C[C@H]4C[C@H](NCCCNCCCCN)CC[C@]4(C)[C@H]3CC[C@]12C.Cl.Cl.Cl.Cl,6.3,12.5,6.3,25,12.5,50,> 100,> 100,
C[C@H](CO)[C@H]1CC[C@H]2[C@@H]3[C@H](N)C[C@H]4C[C@@H](NCCCNCCCCNCCCN)CC[C@]4(C)[C@H]3CC[C@]12C.Cl.Cl.Cl.Cl.Cl,3.1,25,6.3,50,6.3,50,> 100,> 100,
CC(C)[C@H]1CC[C@H]2[C@@H]3[C@H](O)C[C@H]4CC(N)CC[C@]4(C)[C@H]3CC[C@]12C (stereo not given in full),100,100,100,100,100,100,100,100,
C[C@H](CO)[C@H]1CC[C@H]2[C@@H]3[C@H](N)C[C@H]4C[C@@H](NCCCNCCCCN)CC[C@]4(C)[C@H]3CC[C@]12C.Cl.Cl.Cl.Cl,12.5,25,12.5,50,25,> 100,> 100,> 100,
C[C@H](CO)[C@H]1CC[C@H]2[C@@H]3[C@H](N)C[C@H]4C[C@@H](N)CC[C@]4(C)[C@H]3CC[C@]12C.Cl.Cl,6.3,6.3,6.3,25,> 100,50,50,50,

# Reference: ChEMBL document CHEMBL1144797, “Synthesis and antimicrobial activity of 7 alpha-amino-23,24-bisnor-5 alpha-cholan-22-ol derivatives” (Bioorg Med Chem Lett, 2008)
